According to patent publication US8575307B2, “Protein kinase C inhibitors for prevention of insulin resistance and type 2 diabetes” (Hadasit Medical Research Services & Development Ltd., priority 2005, dated 2013):
Square brackets hold non-standard residues; d marks the D form. * marks the point of attachment. Myristoyl = CCCCCCCCCCCCCC(=O)*

How the values were obtained:
[1] = tested on: nutritionally induced type 2 diabetes in Psammomys obesus; test: Nutritionally induced diabetes in Psammomys obesus model: whole blood glucose by glucometer; format: in vivo; details: diabetic Psammomys on high energy diet; three intraperitoneal injections of 10 mg/kg, 5 days apart
Description: Psammomys obesus gerbils males or females weighing 160-200 g in the fed state were used. […] The animals were then injected intraperitoneally with 10 mg/kg of the peptide dissolved in dimethylsulphoxide solvent (or with solvent alone in controls). […] Whole blood glucose was measured by a glucometer on a minidroplet of blood withdrawn from the end of the tail. Three injections were given 5 days apart and after 14 days or earlier the high blood glucose levels of the animals became normal, the controls remained at the 300-400 mg/dl level. The normal level lasted at least for 3 to 5 days after the last injection. […] The line with asterisk represents the control animal. Other lines are those of individual injected animals.

[2] = tested on: pancreatic beta cells; test: Histology (hematoxylin-eosin) and insulin immunostaining of pancreatic beta cells; format: in vivo, Psammomys obesus; details: diabetic Psammomys, peptide treatment for 14 days
Description: For assaying the insulin signaling pathway components and electronmicroscopic examination of the pancreatic beta cells, animals were killed by decapitation in the fed state in the morning three days after the third intraperitoneal peptide injection. Blood was collected and serum insulin levels was determined by radioimmunoassay, using anti-human antibodies. The gastrocnemius muscles from both legs were excised, immediately frozen in liquid nitrogen, and then stored at −80° C. The electronmicroscopic examination of pancreatic beta cells was performed on slices of pancreatic paraffin blocks according to the method of Joins et al., 2002, Virchovs Arch 440: 63-69. The histologic and immunostaining properties of the pancreatic beta cells in diabetic Psammomys gerbils injected with peptide 12 were investigated in order to check whether the beta cells are protected from hyperglycemia. […] FIGS. 5A and 5B describe representative hematoxylin-eosin stained beta cell and insulin immunostained beta cells in diabetic and treated animals.

[3] = tested on: PKB/AKT; test: Immunoblot of serine phosphorylation of PKB/AKT in muscle lysates; format: in vivo, Psammomys obesus; details: treated vs non-treated animal
Description: (§1) For assaying the insulin signaling pathway components and electronmicroscopic examination of the pancreatic beta cells, animals were killed by decapitation in the fed state in the morning three days after the third intraperitoneal peptide injection. Blood was collected and serum insulin levels was determined by radioimmunoassay, using anti-human antibodies. The gastrocnemius muscles from both legs were excised, immediately frozen in liquid nitrogen, and then stored at −80° C.
(§2) Immunoblot analysis of insulin signaling molecules were performed using muscle homogenates prepared in a homogenization buffer that contained 20 mmol/l HEPES, 8 mmol/l EDTA, 0.2 mmol/l Na3VO4, 10 mmol/l Na4P2O7, 2.5 mmol/l, 2 mM phenylmathylsulfonyl fluorid, 160 mmol/l NaF, 2 mmol/l DCA, 1% Triton X-100, 1% protease inhibitor cocktail and 1% phaphatase inhibitor cocktail (Sigma®) pH 7.4. Equal amount of cell lysate were dissolved in Laemmli buffer and subjected to SDS-PAGE gel separation. The separated proteins were transferred to nitrocellulose membranes. […] All protein data were quantified by densitometry. […]
(§3) The extent of phosphorylation of the components of the insulin signaling pathway (signal proteins) in the muscle lysates of the treated and non-treated animals “ ” was investigated. FIG. 6 presents the relative extent of serine phosphorylation of IRS by PKC as determined by immunobloting with a specific antibody. […]

[4] = tested on: glucose transporter GLUT4 protein; test: Immunoblot of GLUT4 protein amount in muscle lysates; format: in vivo, Psammomys obesus; details: treated vs non-treated animal
Description: as §1, §2, §3

[5] = tested on: serine phosphorylation of IRS by PKC; test: Immunoblot of serine phosphorylation of IRS in muscle lysates; format: in vivo, Psammomys obesus; details: treated vs non-treated animal
Description: as §1, §2, §3

Substance	hypoglycemic effect (blood glucose) [1]	immunostainable insulin content of the pancreatic beta cells [2]	beta cell structure ([2]; hematoxylin-eosin staining)	relative extent of phosphorylation of serine in PKB/AKT [3]	relative amount of the glucose transporter GLUT4 protein [4]	relative extent of serine phosphorylation of IRS by PKC [5]
myristoyl-Gly-Asn-Leu-Met-Phe-Gln-Ile-Gln-Arg-Ser-Arg-Lys-Phe-amide (Myristoyl-GNLMFQIQRSRKF-NH2; SMILES CCCCCCCCCCCCCC(=O)NCC(=O)N[C@@H](CC(N)=O)C(=O)N[C@@H](CC(C)C)C(=O)N[C@@H](CCSC)C(=O)N[C@@H](Cc1ccccc1)C(=O)N[C@@H](CCC(N)=O)C(=O)N[C@H](C(=O)N[C@@H](CCC(N)=O)C(=O)N[C@@H](CCCNC(=N)N)C(=O)N[C@@H](CO)C(=O)N[C@@H](CCCNC(=N)N)C(=O)N[C@@H](CCCCN)C(=O)N[C@@H](Cc1ccccc1)C(N)=O)[C@@H](C)CC) [peptide 16, myristoylated peptide analog derived from the αD region of PKC-ε]	hypoglycemic effect	–	–	–	–	–
myristoyl-Gly-Phe-Gln-Ile-Gln-Arg-Ser-Arg-Lys-Phe-Asn-amide (Myristoyl-GFQIQRSRKFN-NH2; SMILES CCCCCCCCCCCCCC(=O)NCC(=O)N[C@@H](Cc1ccccc1)C(=O)N[C@@H](CCC(N)=O)C(=O)N[C@H](C(=O)N[C@@H](CCC(N)=O)C(=O)N[C@@H](CCCNC(=N)N)C(=O)N[C@@H](CO)C(=O)N[C@@H](CCCNC(=N)N)C(=O)N[C@@H](CCCCN)C(=O)N[C@@H](Cc1ccccc1)C(=O)N[C@@H](CC(N)=O)C(N)=O)[C@@H](C)CC) [peptide 12, myristoylated peptide analog derived from the αD region of PKC-ε]	hypoglycemic effect	replenished	markedly improved	reduced	elevated	much lower
myristoyl-Gly-Met-Ala-(D)Lys-Gln-Pro-Pro-Phe-amide (Myristoyl-GMA[dK]QPPF-NH2; SMILES CCCCCCCCCCCCCC(=O)NCC(=O)N[C@@H](CCSC)C(=O)N[C@@H](C)C(=O)N[C@H](CCCCN)C(=O)N[C@@H](CCC(N)=O)C(=O)N1CCC[C@H]1C(=O)N1CCC[C@H]1C(=O)N[C@@H](Cc1ccccc1)C(N)=O) [peptide 7, myristoylated peptide analog derived from the HJ region of PKC-ε]	hypoglycemic effect	–	–	–	–	–
